Measurements: patent US5120730A, “Benzothiazepine esters, their preparation and formulations for therapeutic use” (IdB Holding SpA, priority 1990, dated 1992)
“Also recorded” adds a separate entry of the source. Where two headings read alike, the source gives them in different places.

Key:
[1] = tested on: isolated guinea pig atria; assay: Isolated guinea pig atria: force and frequency of spontaneous contractions; set-up: species or system guinea pig (Hartley-Dunkin); conditions: for inhibition at 10 µM / activation at 10 µM / IC25: Cavia porcellus; for inhibition at 10 µM: read-out: negative chronotropic effect; for activation at 10 µM: read-out: positive inotropic effect; for activity on force and frequency of the contractions (in words) / IC25: isolated guinea pig atria; for IC25: n = 6
Description: 1. The atria taken from Hartley-Dunkin guinea pigs of average weight 400-450 g were placed in an isolated organ bath of 15 ml containing a physiological Krebs solution (J. C. Doxey et al., Br. J. Pharmac. 78, 498, 1983) at a temperature of 30°±0.5° and oxygenated by means of a gaseous mixture composed of 95% of O2 and 5% of CO2. The force and frequency of the spontaneous contractions (T. De Gubareff and W. Sleaton Jr., J. Pharm. Exp. Ther., 148, 202, 1965) were recorded by means of an isometric force transducer. The concentration of product required to reduce the contraction force and frequency by 25% (IC25) and the relevant pIC25 were calculated.

isolated rat portal vein = assay: Isolated rat portal vein: force of spontaneous contraction; set-up: species or system rat (Sprague-Dawley); conditions: for selectivity, isolated vessels vs atria (in words): comparison of rat portal vein with guinea pig atria; for inhibition of contraction force (in words) / IC50: isolated rat portal vein; for IC50: 50% reduction of contraction force, n = 6, read-out: Contraction force pIC50 (converted)
Source text: 2. 2-3 cm strips of portal vein were taken from Sprague-Dawley rats of 220-250 g weight.

[2] = rats
Source text: (§1) Sprague-Dawley rats of both sexes (5 male+5 female) were used for each experimental group.

in vivo = conditions: rat
Source text: as §1

[3] = Haemodynamics in anaesthetized rats; type: in vivo, rat (Sprague-Dawley); conditions: for change in BP (systemic arterial pressure) / change in HR (heart rate) / change in LVP (left intraventricular pressure) / change in dp/dt: n = 6
Description: Male Sprague-Dawley rats of average weight 350-400 g, anaesthetized with sodium pentobarbital in an intraperitoneal dose of 60 mg/kg, underwent cannulation for measuring the following parameters: systemic arterial pressure (BP), heart rate (HR) left intraventricular pressure (LVP) and dp/dt.
After recording of the baseline values, the substances were injected by the intravenous route within a time of 30 seconds. The changes in the parameters indicated above were measured at times of 0.5-2-10 and 20 minutes.

COc1ccc([C@@H]2Sc3ccccc3N(CCN(C)C)C(=O)[C@@H]2OC(=O)CCC(=O)O[C@H]2C(=O)N(CCN(C)C)c3ccccc3S[C@H]2c2ccc(OC)cc2)cc1 (relative stereo) [Ib, 3,3'-[(1,4-dioxo-1,4-butanediyl)-bis(oxy)] bis[(+)-cis-5-[2-(dimethylamino)ethyl]-2,3-dihydro-2-(4-methoxyphenyl)-1,5-benzothiazepin-4(5H)-one]]
inhibition at 10 µM [1]: 5%
activation at 10 µM [1]: 12%
activity on force and frequency of the contractions (in words) [1]: virtually inactive; also recorded: free of the negative chronotropic and inotropic effects
selectivity, isolated vessels vs atria (in words) (isolated rat portal vein): selective activity on the isolated vessels
inhibition of contraction force (in words) (isolated rat portal vein): antagonize the contraction force in a dose-dependent manner; also recorded: significantly inhibit the contraction force
IC50 (isolated rat portal vein): 2340 nM
toxicity versus diltiazem, intraperitoneal (in words) [2]: less toxic than the reference product
toxicity versus diltiazem, oral (in words) [2]: LD50 comparable with that of diltiazem
LD50 at 336 h (in vivo; ip): 600 mg/kg
LD50 at 336 h (in vivo; po): 881 mg/kg

COc1ccc([C@@H]2Sc3ccccc3N(CCN(C)C)C(=O)[C@@H]2OC(C)=O)cc1 [Diltiazem, (+)-Cis-5-[2-(dimethylamino)ethyl]-3-acetoxy-2,3-dihydro-2-(4-methoxyphenyl)-1,5-benzothiazepin-4(5H)-one, reference compound]
IC25 ([1]; 25% reduction of contraction force, read-out: Contraction force pIC25 (converted)): 513 nM
IC25 ([1]; 25% reduction of contraction frequency, read-out: Frequency pIC25 (converted)): 355 nM
activity on force and frequency of the contractions (in words) [1]: significant activity
IC50 (isolated rat portal vein): 813 nM
change in BP (systemic arterial pressure) ([3]; 0.35 μmol/kg i.v., 0.5 minutes): -21 mmHg
change in HR (heart rate) ([3]; 0.35 μmol/kg i.v., 0.5 minutes): -4 bpm
change in LVP (left intraventricular pressure) ([3]; 0.35 μmol/kg i.v., 0.5 minutes): -18 mmHg
change in dp/dt ([3]; 0.35 μmol/kg i.v., 0.5 minutes): -150 mmHg/sec
change in BP (systemic arterial pressure) ([3]; 0.35 μmol/kg i.v., 2 minutes): -1 mmHg
change in HR (heart rate) ([3]; 0.35 μmol/kg i.v., 2 minutes): +6 bpm
change in LVP (left intraventricular pressure) ([3]; 0.35 μmol/kg i.v., 2 minutes): -1 mmHg
change in dp/dt ([3]; 0.35 μmol/kg i.v., 2 minutes): -25 mmHg/sec
change in BP (systemic arterial pressure) ([3]; 0.35 μmol/kg i.v., 10 minutes): +6 mmHg
change in HR (heart rate) ([3]; 0.35 μmol/kg i.v., 10 minutes): +10 bpm
change in LVP (left intraventricular pressure) ([3]; 0.35 μmol/kg i.v., 10 minutes): +2 mmHg
change in dp/dt ([3]; 0.35 μmol/kg i.v., 10 minutes): -17 mmHg/sec
change in BP (systemic arterial pressure) ([3]; 0.35 μmol/kg i.v., 20 minutes): +1 mmHg
change in HR (heart rate) ([3]; 0.35 μmol/kg i.v., 20 minutes): +3 bpm
change in LVP (left intraventricular pressure) ([3]; 0.35 μmol/kg i.v., 20 minutes): -5 mmHg
change in dp/dt ([3]; 0.35 μmol/kg i.v., 20 minutes): -183 mmHg/sec
effect on all observed parameters (in words) ([3]; 0.7 μmol/kg i.v.): significantly reduces all the observed parameters
effect on heart rate and contractility (in words) ([3]; 0.7 μmol/kg i.v.): significant cardiodepressive effect
change in BP (systemic arterial pressure) ([3]; 0.70 μmol/kg i.v., 0.5 minutes): -52 mmHg
change in HR (heart rate) ([3]; 0.70 μmol/kg i.v., 0.5 minutes): -83 bpm
change in LVP (left intraventricular pressure) ([3]; 0.70 μmol/kg i.v., 0.5 minutes): -46 mmHg
change in dp/dt ([3]; 0.70 μmol/kg i.v., 0.5 minutes): -658 mmHg/sec
change in BP (systemic arterial pressure) ([3]; 0.70 μmol/kg i.v., 2 minutes): -34 mmHg
change in HR (heart rate) ([3]; 0.70 μmol/kg i.v., 2 minutes): -99 bpm
change in LVP (left intraventricular pressure) ([3]; 0.70 μmol/kg i.v., 2 minutes): -24 mmHg
change in dp/dt ([3]; 0.70 μmol/kg i.v., 2 minutes): -375 mmHg/sec
change in BP (systemic arterial pressure) ([3]; 0.70 μmol/kg i.v., 10 minutes): -16 mmHg
change in HR (heart rate) ([3]; 0.70 μmol/kg i.v., 10 minutes): -5 bpm
change in LVP (left intraventricular pressure) ([3]; 0.70 μmol/kg i.v., 10 minutes): -4 mmHg
change in dp/dt ([3]; 0.70 μmol/kg i.v., 10 minutes): -108 mmHg/sec
change in BP (systemic arterial pressure) ([3]; 0.70 μmol/kg i.v., 20 minutes): +9 mmHg
change in HR (heart rate) ([3]; 0.70 μmol/kg i.v., 20 minutes): +7 bpm
change in LVP (left intraventricular pressure) ([3]; 0.70 μmol/kg i.v., 20 minutes): -7 mmHg
change in dp/dt ([3]; 0.70 μmol/kg i.v., 20 minutes): -92 mmHg/sec

COc1ccc([C@@H]2Sc3ccccc3N(CCN(C)C)C(=O)[C@@H]2OC(=O)/C=C/C(=O)O[C@H]2C(=O)N(CCN(C)C)c3ccccc3S[C@H]2c2ccc(OC)cc2)cc1 [Ia, 3,3'-[(2E)-(1,4-dioxo-1,4-butenediyl)-bis(oxy)]bis[(+)-cis-5-[2-(dimethylamino)ethyl]-2,3-dihydro-2-(4-methoxyphenyl)-1,5-benzothiazepin-4-(5H)-one]]
inhibition at 10 µM [1]: 5%
activation at 10 µM [1]: 6%
activity on force and frequency of the contractions (in words) [1]: virtually inactive; also recorded: free of the negative chronotropic and inotropic effects
selectivity, isolated vessels vs atria (in words) (isolated rat portal vein): selective activity on the isolated vessels
inhibition of contraction force (in words) (isolated rat portal vein): antagonize the contraction force in a dose-dependent manner; also recorded: significantly inhibit the contraction force
IC50 (isolated rat portal vein): 3980 nM
change in BP (systemic arterial pressure) ([3]; 0.35 μmol/kg i.v., 0.5 minutes): -32 mmHg
change in HR (heart rate) ([3]; 0.35 μmol/kg i.v., 0.5 minutes): -19 bpm
change in LVP (left intraventricular pressure) ([3]; 0.35 μmol/kg i.v., 0.5 minutes): -29 mmHg
change in dp/dt ([3]; 0.35 μmol/kg i.v., 0.5 minutes): -31 mmHg/sec
change in BP (systemic arterial pressure) ([3]; 0.35 μmol/kg i.v., 2 minutes): -16 mmHg
change in HR (heart rate) ([3]; 0.35 μmol/kg i.v., 2 minutes): -19 bpm
change in LVP (left intraventricular pressure) ([3]; 0.35 μmol/kg i.v., 2 minutes): -11 mmHg
change in dp/dt ([3]; 0.35 μmol/kg i.v., 2 minutes): -20 mmHg/sec
change in BP (systemic arterial pressure) ([3]; 0.35 μmol/kg i.v., 10 minutes): +2 mmHg
change in HR (heart rate) ([3]; 0.35 μmol/kg i.v., 10 minutes): -9 bpm
change in LVP (left intraventricular pressure) ([3]; 0.35 μmol/kg i.v., 10 minutes): -2 mmHg
change in dp/dt ([3]; 0.35 μmol/kg i.v., 10 minutes): -67 mmHg/sec
change in BP (systemic arterial pressure) ([3]; 0.35 μmol/kg i.v., 20 minutes): -8 mmHg
change in HR (heart rate) ([3]; 0.35 μmol/kg i.v., 20 minutes): -14 bpm
change in LVP (left intraventricular pressure) ([3]; 0.35 μmol/kg i.v., 20 minutes): -11 mmHg
change in dp/dt ([3]; 0.35 μmol/kg i.v., 20 minutes): -25 mmHg/sec
effect on heart rate and contractility (in words) ([3]; 0.7 μmol/kg i.v.): without altering the heart rate and contractility parameters
hypotensive activity (in words) ([3]; 0.7 μmol/kg i.v.): significant and lasting hypotensive activity
change in BP (systemic arterial pressure) ([3]; 0.70 μmol/kg i.v., 0.5 minutes): -32 mmHg
change in HR (heart rate) ([3]; 0.70 μmol/kg i.v., 0.5 minutes): -19 bpm
change in LVP (left intraventricular pressure) ([3]; 0.70 μmol/kg i.v., 0.5 minutes): -33 mmHg
change in dp/dt ([3]; 0.70 μmol/kg i.v., 0.5 minutes): -15 mmHg/sec
change in BP (systemic arterial pressure) ([3]; 0.70 μmol/kg i.v., 2 minutes): -33 mmHg
change in HR (heart rate) ([3]; 0.70 μmol/kg i.v., 2 minutes): -11 bpm
change in LVP (left intraventricular pressure) ([3]; 0.70 μmol/kg i.v., 2 minutes): -32 mmHg
change in dp/dt ([3]; 0.70 μmol/kg i.v., 2 minutes): -20 mmHg/sec
change in BP (systemic arterial pressure) ([3]; 0.70 μmol/kg i.v., 10 minutes): -22 mmHg
change in HR (heart rate) ([3]; 0.70 μmol/kg i.v., 10 minutes): -13 bpm
change in LVP (left intraventricular pressure) ([3]; 0.70 μmol/kg i.v., 10 minutes): -32 mmHg
change in dp/dt ([3]; 0.70 μmol/kg i.v., 10 minutes): -16 mmHg/sec
change in BP (systemic arterial pressure) ([3]; 0.70 μmol/kg i.v., 20 minutes): -25 mmHg
change in HR (heart rate) ([3]; 0.70 μmol/kg i.v., 20 minutes): -9 bpm
change in LVP (left intraventricular pressure) ([3]; 0.70 μmol/kg i.v., 20 minutes): -32 mmHg
change in dp/dt ([3]; 0.70 μmol/kg i.v., 20 minutes): -20 mmHg/sec
selectivity of action (in words) ([3]; conclusion from in vivo and in vitro results): selective action on the smooth vessel musculature
toxicity versus diltiazem, intraperitoneal (in words) [2]: less toxic than the reference product
toxicity versus diltiazem, oral (in words) [2]: less toxic
LD50 at 336 h (in vivo; ip): 250 mg/kg
LD50 at 336 h (in vivo; po): > 1500 mg/kg
